In US20080058213A1, “Benzoxazole Compounds” (priority 2004, published 2008):

Legend:
Assay type in all cases: in vivo
[1] = system: wheat; experiment: Foliage treatment test for upland field (Test Example 3): phytotoxicity to wheat; conditions: foliage treatment at 1.0-2.0 leaf stage of southern crabgrass, examined after 3 weeks; also: key: 0: normal growth; 1: little damaged; 2: low damaged; 3: medium damaged; 4: serious damaged; 5: complete killed
Summary of the method: (§1)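 Crops sown in compost-mixed soil pots, kept in a glasshouse at 25° C. average. Effect scored after 3 weeks versus untreated control on a 0–5 scale (0 normal growth, 5 complete kill).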

[2] = system: Japanese bulrush (Scirpus juncoides); experiment: Weed control test for paddy field (Test Example 1): Japanese bulrush; conditions: paddy pots, treated at 1.0 leaf stage of barnyard grass, examined after 3 weeks
Summary of the method: (§2)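 Paddy-soil pots flooded to 3 cm, seeded with weeds and transplanted with 2.0-leaf rice. Wettable-powder formulations diluted in water and applied dropwise at a prescribed active-ingredient dose per are at barnyard grass 1.0-leaf stage. After 3 weeks in a 25 °C glasshouse, growth inhibition versus untreated control scored 0–5 (0: <20%; 5: 100%).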

[3] = system: southern crabgrass (Digitaria ciliaris); experiment: Soil treatment test for upland field (Test Example 2): southern crabgrass; conditions: soil treatment before germination, examined after 3 weeks
Summary of the method: (§3)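 Upland soil in 1/3,000 are pots was seeded and covered; compounds formulated as wettable powders, diluted with water to the prescribed active-ingredient dose, were sprayed uniformly onto the soil surface pre-emergence at 15 liters per are. After 3 weeks in a glasshouse at 25° C average, growth inhibition versus untreated control was graded 0–5.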

[4] = system: velvetleaf (Abutilon theophrasti); experiment: Soil treatment test for upland field (Test Example 2): velvetleaf; conditions: soil treatment before germination, examined after 3 weeks
Summary of the method: as §3

[5] = system: wheat; experiment: Soil treatment test for upland field (Test Example 2): phytotoxicity to wheat; conditions: soil treatment before germination, examined after 3 weeks; also: key: 0: normal growth; 1: little damaged; 2: low damaged; 3: medium damaged; 4: serious damaged; 5: complete killed
[6] = system: velvetleaf; experiment: Foliage treatment test for upland field (Test Example 3): velvetleaf; conditions: foliage treatment at 1.0-2.0 leaf stage of southern crabgrass, examined after 3 weeks
Summary of the method: (§4)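 Weeds were sown in compost-soil pots in a 25° C glasshouse. Wettable-powder formulations, diluted in water to the prescribed active-ingredient dose, were sprayed at 15 liters per are when southern crabgrass reached the 1.0-2.0 leaf stage. After 3 weeks, growth inhibition versus untreated control was scored 0 (under 20%) to 5 (100%).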

[7] = system: flat sedge (Cyperus serotinus); experiment: Weed control test for paddy field (Test Example 1): flat sedge; conditions: paddy pots, treated at 1.0 leaf stage of barnyard grass, examined after 3 weeks
Summary of the method: as §2

[8] = system: southern crabgrass; experiment: Foliage treatment test for upland field (Test Example 3): southern crabgrass; conditions: foliage treatment at 1.0-2.0 leaf stage of southern crabgrass, examined after 3 weeks
Summary of the method: as §4

[9] = system: common lambsquaters (Chenopodium album); experiment: Soil treatment test for upland field (Test Example 2): common lambsquaters; conditions: soil treatment before germination, examined after 3 weeks
Summary of the method: as §3

[10] = system: corn; experiment: Foliage treatment test for upland field (Test Example 3): phytotoxicity to corn; conditions: foliage treatment at 1.0-2.0 leaf stage of southern crabgrass, examined after 3 weeks; also: key: 0: normal growth; 1: little damaged; 2: low damaged; 3: medium damaged; 4: serious damaged; 5: complete killed
Summary of the method: as §1

[11] = system: common lambsquaters; experiment: Foliage treatment test for upland field (Test Example 3): common lambsquaters; conditions: foliage treatment at 1.0-2.0 leaf stage of southern crabgrass, examined after 3 weeks
Summary of the method: as §4

[12] = system: common purslane; experiment: Foliage treatment test for upland field (Test Example 3): common purslane; conditions: foliage treatment at 1.0-2.0 leaf stage of southern crabgrass, examined after 3 weeks
Summary of the method: as §4

[13] = system: Monochoria (Monochoria vaginalis); experiment: Weed control test for paddy field (Test Example 1): Monochoria; conditions: paddy pots, treated at 1.0 leaf stage of barnyard grass, examined after 3 weeks
Summary of the method: as §2

[14] = system: corn; experiment: Soil treatment test for upland field (Test Example 2): phytotoxicity to corn; conditions: soil treatment before germination, examined after 3 weeks; also: key: 0: normal growth; 1: little damaged; 2: low damaged; 3: medium damaged; 4: serious damaged; 5: complete killed
[15] = system: soybean; experiment: Foliage treatment test for upland field (Test Example 3): phytotoxicity to soybean; conditions: foliage treatment at 1.0-2.0 leaf stage of southern crabgrass, examined after 3 weeks
Summary of the method: as §1

[16] = system: rice plant; experiment: Weed control test for paddy field (Test Example 1): phytotoxicity to rice plant; conditions: paddy pots, treated at 1.0 leaf stage of barnyard grass, examined after 3 weeks
Summary of the method: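 Rice transplanted at 2.0 leaf stage into flooded paddy soil pots (3 cm water) sown with weeds. Wettable powder applied dropwise at a prescribed active ingredient dose per are at 1.0 leaf stage of barnyard grass. Kept 3 weeks in glasshouse at 25 °C. Phytotoxicity scored 0 (normal) to 5 (killed) against untreated control.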

[17] = system: soybean; experiment: Soil treatment test for upland field (Test Example 2): phytotoxicity to soybean; conditions: soil treatment before germination, examined after 3 weeks
[18] = system: barnyard grass (Echinochloa crusgalli); experiment: Weed control test for paddy field (Test Example 1): barnyard grass; conditions: paddy pots, treated at 1.0 leaf stage of barnyard grass, examined after 3 weeks
Summary of the method: as §2

[19] = system: slender amaranth (Amaranthus viridis); experiment: Soil treatment test for upland field (Test Example 2): slender amaranth; conditions: soil treatment before germination, examined after 3 weeks
Summary of the method: as §3

[20] = system: common purslane (Portulaca oleracea); experiment: Soil treatment test for upland field (Test Example 2): common purslane; conditions: soil treatment before germination, examined after 3 weeks
Summary of the method: as §3

[21] = system: slender amaranth; experiment: Foliage treatment test for upland field (Test Example 3): slender amaranth; conditions: foliage treatment at 1.0-2.0 leaf stage of southern crabgrass, examined after 3 weeks
Summary of the method: as §4

Compound: CCOCC(=Cc1cccc(C(F)(F)F)c1)c1nc2cc(C(F)(F)F)ccc2o1 [Compound 54]
- Phytotoxicity wheat ([1]; dose 2.5 g ai/a): 1
- Phytotoxicity wheat ([1]; dose 5 g ai/a): 1
- Herbicidal Effect Japanese bulrush ([2]; dose 2.5 g ai/a): 4 (80%-less than 100%)
- Herbicidal Effect Japanese bulrush ([2]; dose 5 g ai/a): 5 (100%)
- Herbicidal Effect southern crabgrass ([3]; dose 2.5 g ai/a): 5 (100%)
- Herbicidal Effect southern crabgrass ([3]; dose 5 g ai/a): 5 (100%)
- Herbicidal Effect velvetleaf ([4]; dose 2.5 g ai/a): 5 (100%)
- Herbicidal Effect velvetleaf ([4]; dose 5 g ai/a): 5 (100%)
- Phytotoxicity wheat ([5]; dose 2.5 g ai/a): 1
- Phytotoxicity wheat ([5]; dose 5 g ai/a): 1
- Herbicidal Effect velvetleaf ([6]; dose 2.5 g ai/a): 5 (100%)
- Herbicidal Effect velvetleaf ([6]; dose 5 g ai/a): 5 (100%)
- Herbicidal Effect Flat sedge ([7]; dose 2.5 g ai/a): 3 (60%-less than 80%)
- Herbicidal Effect Flat sedge ([7]; dose 5 g ai/a): 4 (80%-less than 100%)
- Herbicidal Effect southern crabgrass ([8]; dose 2.5 g ai/a): 5 (100%)
- Herbicidal Effect southern crabgrass ([8]; dose 5 g ai/a): 5 (100%)
- Herbicidal Effect common lambsquaters ([9]; dose 2.5 g ai/a): 5 (100%)
- Herbicidal Effect common lambsquaters ([9]; dose 5 g ai/a): 5 (100%)
- Phytotoxicity corn ([10]; dose 2.5 g ai/a): 1
- Phytotoxicity corn ([10]; dose 5 g ai/a): 2
- Herbicidal Effect Common lambsquatters ([11]; dose 2.5 g ai/a): 5 (100%)
- Herbicidal Effect Common lambsquatters ([11]; dose 5 g ai/a): 5 (100%)
- Herbicidal Effect common purslane ([12]; dose 2.5 g ai/a): 5 (100%)
- Herbicidal Effect common purslane ([12]; dose 5 g ai/a): 5 (100%)
- Herbicidal Effect Monochoria vaginalis ([13]; dose 2.5 g ai/a): 5 (100%)
- Herbicidal Effect Monochoria vaginalis ([13]; dose 5 g ai/a): 5 (100%)
- Phytotoxicity corn ([14]; dose 2.5 g ai/a): 1
- Phytotoxicity corn ([14]; dose 5 g ai/a): 1
- Phytotoxicity soybean ([15]; dose 2.5 g ai/a): 2
- Phytotoxicity soybean ([15]; dose 5 g ai/a): 2
- Phytotoxicity Rice plant ([16]; dose 2.5 g ai/a): 1
- Phytotoxicity Rice plant ([16]; dose 5 g ai/a): 1
- Phytotoxicity soybean ([17]; dose 2.5 g ai/a): 0
- Phytotoxicity soybean ([17]; dose 5 g ai/a): 1
- Herbicidal Effect Barnyard grass ([18]; dose 2.5 g ai/a): 5 (100%)
- Herbicidal Effect Barnyard grass ([18]; dose 5 g ai/a): 5 (100%)
- Herbicidal Effect slender amaranth ([19]; dose 2.5 g ai/a): 5 (100%)
- Herbicidal Effect slender amaranth ([19]; dose 5 g ai/a): 5 (100%)
- Herbicidal Effect common purslane ([20]; dose 2.5 g ai/a): 5 (100%)
- Herbicidal Effect common purslane ([20]; dose 5 g ai/a): 5 (100%)
- Herbicidal Effect slender amaranth ([21]; dose 2.5 g ai/a): 5 (100%)
- Herbicidal Effect slender amaranth ([21]; dose 5 g ai/a): 5 (100%)
